What all share (assay type): cell-based
For one assay, the system named is A. fumigatus MF4839. As to the kind of experiment: MIC, inhibitor dilution assay in microtiter format, A. fumigatus MF4839. Conditions: Aspergillus fumigatus; A. fumigatus MF4839, 42 hours, 28° C.; read-out: Minimum Inhibitory Concentration. On the procedure:
(§1) The compounds are particularly active towards filamentous fungi and yeasts including Candida albicans and Crypt neoformans. The sensitivity of filamentous fungi and yeast was determined using inhibitor dilution assays in microtiter format. The compounds were dissolved in DMSO at 2 mg/ml and serially diluted in 0.1M phosphate buffer, pH 7.0 in the microtiter dish from 100 to 0.006 μg/ml. A standardized spore suspension for testing the filamentous fungi was prepared by inoculating Antibiotic Medium #3 containing 1.5% agar with spores such that 1.5×10^3 colony forming units were added per well. The microtiter wells were filled with 50 μl of buffer containing compound and 50 μl of inoculated medium. The sensitivity of yeasts was determined by inoculating yeast nitrogen base containing 1% dextrose (YNB/G) with aliquots of an overnight yeast culture grown in yeast morphology (YM) media at 35° C. and diluting in YNB/G to yield a final concentration of 1.5-7.5×10^3 colony forming units/well. One hundred fifty μl of inoculated media was added per well. To test the sensitivity of yeast, compound was solubilized in 10 percent aqueous DMSO at 2.56 mg/ml. The compound was diluted serially in YNB/G from 128 to 0.06 μg/ml. The wells were filled with 150 μl of drug containing media. […]

In the next assay the test system is A. flavus MF383. Briefly: MIC, inhibitor dilution assay in microtiter format, A. flavus MF383. Conditions: Aspergillus flavus; A. flavus MF383, 42 hours, 28° C.; read-out: Minimum Inhibitory Concentration. On the procedure:
as §1

A further assay deals with A. niger MF442. As to the kind of experiment: MIC, inhibitor dilution assay in microtiter format, A. niger MF442. The note with it: Aspergillus niger; A. niger MF442, 42 hours, 28° C.; read-out: Minimum Inhibitory Concentration. On the procedure:
as §1

Another assay has as its system Fus. oxysporum MF4014. Briefly: MIC, inhibitor dilution assay in microtiter format, Fus. oxysporum MF4014. Conditions: Fusarium oxysporum; Fus. oxysporum MF4014, 42 hours, 28° C.; read-out: Minimum Inhibitory Concentration. On the procedure: as §1
Another assay relates to Pen. italicum MF2819. As to the kind of experiment: MIC, inhibitor dilution assay in microtiter format, Pen. italicum MF2819. The note with it: Penicillium italicum; Pen. italicum MF2819, 42 hours, 28° C.; read-out: Minimum Inhibitory Concentration. On the procedure: as §1
A further assay concerns Coch. miyabeanus MF4626. As to the kind of experiment: MIC, inhibitor dilution assay in microtiter format, Coch. miyabeanus MF4626. Conditions: Bipolaris oryzae, MF4626, 42 h, read-out: Minimum Inhibitory Concentration. On the procedure:
as §1

A further assay has as its system T. Mentagrophytes MF4864. Briefly: MIC, inhibitor dilution assay in microtiter format, T. Mentagrophytes MF4864. Conditions: Trichophyton mentagrophytes; T. Mentagrophytes MF4864, 42 hours, 28° C.; read-out: Minimum Inhibitory Concentration. On the procedure:
as §1

In the next assay the test system is C. albicans MY1055. As to the kind of experiment: MIC and MFC, inhibitor dilution assay in microtiter format, C. albicans MY1055. Conditions: Candida albicans; for MIC: C. albicans MY1055, 24 hours, 28° C., read-out: Minimum Inhibitory Concentration; for MFC: C. albicans MY1055, no growth or no more than three colonies, read-out: Minimum Fungicidal Concentration. On the procedure:
(§2) The compounds are particularly active towards filamentous fungi and yeasts including Candida albicans and Crypt neoformans. The sensitivity of filamentous fungi and yeast was determined using inhibitor dilution assays in microtiter format. The compounds were dissolved in DMSO at 2 mg/ml and serially diluted in 0.1M phosphate buffer, pH 7.0 in the microtiter dish from 100 to 0.006 μg/ml. A standardized spore suspension for testing the filamentous fungi was prepared by inoculating Antibiotic Medium #3 containing 1.5% agar with spores such that 1.5×10^3 colony forming units were added per well. The microtiter wells were filled with 50 μl of buffer containing compound and 50 μl of inoculated medium. The sensitivity of yeasts was determined by inoculating yeast nitrogen base containing 1% dextrose (YNB/G) with aliquots of an overnight yeast culture grown in yeast morphology (YM) media at 35° C. and diluting in YNB/G to yield a final concentration of 1.5-7.5×10^3 colony forming units/well. One hundred fifty μl of inoculated media was added per well. To test the sensitivity of yeast, compound was solubilized in 10 percent aqueous DMSO at 2.56 mg/ml. The compound was diluted serially in YNB/G from 128 to 0.06 μg/ml. The wells were filled with 150 μl of drug containing media. The minimum inhibitory concentration (MIC) is defined as the lowest concentration to prevent visible growth after an incubation for 42 hours, 28° C. for the filamentous fungi and 24 hours, 28° C. for the yeasts. […] Representative of the antifungal activity are the minimum inhibitory concentration and minimum fungicidal concentration data shown below: […]

The subject of a further assay is C. tropicalis MY1012. Briefly: MIC and MFC, inhibitor dilution assay in microtiter format, C. tropicalis MY1012. The note with it: Candida tropicalis; for MIC: C. tropicalis MY1012, 24 hours, 28° C., read-out: Minimum Inhibitory Concentration; for MFC: C. tropicalis MY1012, no growth or no more than three colonies, read-out: Minimum Fungicidal Concentration. On the procedure: as §2

The test system of the next assay is C. parapsilosis MY1010. As to the kind of experiment: MIC and MFC, inhibitor dilution assay in microtiter format, C. parapsilosis MY1010. The note with it: Lodderomyces parapsilosis; for MIC: C. parapsilosis MY1010, 24 hours, 28° C., read-out: Minimum Inhibitory Concentration; for MFC: C. parapsilosis MY1010, no growth or no more than three colonies, read-out: Minimum Fungicidal Concentration. On the procedure:
as §2

The next assay relates to Crypt. neoformans MY1051. Briefly: MIC and MFC, inhibitor dilution assay in microtiter format, Crypt. neoformans MY1051. Conditions: Cryptococcus neoformans; for MFC: Crypt neoformans MY1051, no growth or no more than three colonies, read-out: Minimum Fungicidal Concentration; for MIC: Crypt. neoformans MY1051, 24 hours, 28° C., read-out: Minimum Inhibitory Concentration. On the procedure:
as §2

Values after ≈ are worked out from the molar mass of the structure shown.

Take `C=C(CCC12OC(C(=O)O)C(O)(C(=O)O)C(C(=O)O)(O1)C(OC(=O)C=CC(C)CC(C)CC)C2O)C(OC(C)=O)C(C)Cc1ccccc1` (centres unmarked) [Compound A]: the MIC with A. fumigatus MF4839 was 6.2 µg/mL (≈ 8.98 µM); in the assay with A. flavus MF383, 6.2 µg/mL (≈ 8.98 µM); in the assay on A. niger MF442, 25 µg/mL (≈ 36.2 µM); in the assay with Fus. oxysporum MF4014 it was more than 100 µg/mL; in the assay with Pen. italicum MF2819, 6.2 µg/mL (≈ 8.98 µM); with Coch. miyabeanus MF4626, 1.6 µg/mL (≈ 2.32 µM). In addition, the MIC in the assay on T. Mentagrophytes MF4864 turned out to be 4 µg/mL (≈ 5.79 µM); in the assay with C. albicans MY1055, 8 µg/mL (≈ 11.6 µM); in the assay with C. tropicalis MY1012, 4 µg/mL (≈ 5.79 µM); in the assay with C. parapsilosis MY1010 it was 8 µg/mL (≈ 11.6 µM); in the assay with Crypt. neoformans MY1051, 1 µg/mL (≈ 1.45 µM). For the same compound, the MFC in the assay on C. albicans MY1055 amounted to 4 µg/mL (≈ 5.79 µM); in the assay with C. tropicalis MY1012, 2 µg/mL (≈ 2.9 µM); in the assay with C. parapsilosis MY1010 it was 2 µg/mL (≈ 2.9 µM); with Crypt. neoformans MY1051, 0.5 µg/mL (≈ 0.724 µM).

`C=C(CCC12OC(C(=O)OC)C(O)(C(=O)OC)C(C(=O)OC)(O1)C(OC(=O)C=CC(C)CC(C)CC)C2O)C(OC(C)=O)C(C)Cc1ccccc1` (centres unmarked) [Compound B]: the MIC in the assay on A. fumigatus MF4839, with A. flavus MF383, in the assay with T. Mentagrophytes MF4864, with C. albicans MY1055, in the assay with C. tropicalis MY1012 and in the assay on C. parapsilosis MY1010 was more than 128 µg/mL in each case. Further, the MIC in the assay with Crypt. neoformans MY1051 is more than 128 µg/mL. The MFC in the assay on C. albicans MY1055, in the assay with C. tropicalis MY1012, in the assay with C. parapsilosis MY1010 and in the assay on Crypt. neoformans MY1051 was more than 128 µg/mL throughout.

Values taken from patent US5053425A, “Novel anti-fungal compounds” (Merck & Co., Inc., priority 1990, dated 1991).
